In US20030165837A1, “Method for screening DNA binding” (The Scripps Research Institute, priority 2000, published 2003):

Assays:
[1] = tested on: hairpin deoxyoligonucleotides (AATTT, AAAAA, AATAA, ATTAA); experiment: Ethidium bromide displacement quantitative titration, Scatchard analysis; assay type: binding; conditions: for binding constant for the hairpin containing AAAAA: ethidium bromide displacement titration
Protocol: Determination of Binding Constants. Ethidium Bromide/Thiazole Orange Displacement. A 3 mL quartz cuvette was loaded with Tris buffer (0.1 M Tris, 0.1 M, NaCl, pH 8) and ethidium bromide orthiazole orange (0.44×10^−5 M final concentration). […] The hairpin deoxyoligonucleotide of interest was added (1.1 μM, 8.8 μM in bp final concentration), the fluorescence was measured again and normalized to 100% relative fluorescence. A solution of compound (2 μL, 0.1 mM in DMSO) was added and the fluorescence was measured following 5 min of incubation at 23° C. The addition of 2 μL aliquots was continued until the system reached saturation and the fluorescence remained constant with subsequent compound additions.
(§1) Scatchard Analysis of the Titration Curve. The AF was plotted versus molar equivalents of agent and the ΔFsat was determined mathematically by solving the simultaneous equations representing the pre and post saturation regions of the titration curve. Utilizing equations (1)-(3) (FIG. 11), a Scatchard plot was generated where ΔF/[Free Agent] was plotted versus ΔF. The slope of the region immediately preceding complete saturation of the system provided −K.

[2] = tested on: library of 512 hairpin deoxyoligonucleotides containing all possible five bp sequences; experiment: Fluorescent intercalator displacement (ethidium bromide) assay, 96-well, 512-member hairpin library; assay type: binding; conditions: for 3 or 2 bp AT sites, statistical site frequency in the top 50 sequences: FIG. 24; for five bp AT sites found in the top 50 sequences: share of the 16 five bp AT sites; for four bp AT sites found in the top 50 sequences: share of the 32 four bp AT sites; for three bp AT sites found in the top 50 sequences: share of the 80 three bp AT sites
Protocol: Ethidium Bromide Assay. […] Prior to use, each deoxyoligonucleotide was diluted to […] in water and stored at 0° C. for no longer than two days. Each well of a Costar black 96-well plate was loaded with Tris buffer containing ethidium bromide (88 μL of a 0.68×10^−5 solution in buffer (0.1 M Tris, 0.1 M NaCl, pH 8), 0.60×10^−5 M ethidium bromide final concentration). To each well was added one hairpin deoxyoligonucleotide (10 μL, 1.2×10^−5 M in DNA bp final concentration) followed by agent (2 μL of a 0.1 mM solution in water, 2.0×10^−6 M final concentration). […] Fluorescence readings are reported as % fluorescence relative to the control wells. Fluorescence plate readers show a variability of ±10%, but surface effects (i.e bubbles, dust) may contribute to larger variations requiring a second set of measurements.
All other experiments described herein (i.e. compound concentration, overall assay concentration, ethidium bromide:DNA ratio, time variability, etc.) utilized this general procedure in a 96-well plate format.

GC-rich regions = conditions: fold weaker; cited from earlier work
[3] = tested on: 136-membered hairpin library containing all possible four bp sites; experiment: Thiazole orange displacement 96-well assay, 136-membered hairpin library; assay type: binding; conditions: 136 hairpins
Protocol: A preliminary examination of thiazole orange was conducted to assess the optimal assay concentration range, and to establish its affinity and stoichiometry of binding with representative hairpins (FIG. 10). Thiazole was utilized in both the 96-well format assay and in quantitative titrations for determining binding constants (FIGS. 27 and 28). […] A representative example of the use of thiazole orange in the 96-well format assay is illustrated in FIG. 28 with the assay of netropsin against a 136-membered hairpin library containing all possible four bp sites. […] The mean rank of the ten available 4 bp AT sites was 7.3, whereas the mean positions for the 3 and 2 bp sites were 41.6 and 67.7, respectively. Moreover, the rank order binding across the full ensemble of 4 bp AT sites is consistent with that established in footprinting studies (Portugal, J.; Waring, M. J. Eur. J. Biochem. 1987, 167, 281; Portugal, J.; Waring, M. J. FEBS Lett. 1987, 225, 195; Abu-Daya, A.; et al. Nucleic Acids Res. 1995, 23, 3385; Abu-Daya, A.; Fox, K. R. Nucleic Acids Res. 1997, 25, 4962; Harshman, K. D.; Dervan, P. B. Nucleic Acids Res. 1985, 13, 4825; Van Dyke, M. W.; et al. Proc. Natl. Acad. Sci. USA 1982, 79, 5470; Ward, B.; et al. Biochemistry 1988, 27, 1198; Fish, E. L.; et al. Biochemistry 1988, 27, 6026; Kittler, L.; et al. J. Mol. Recognit. 1999, 12, 121).

polynucleotides = experiment: Binding constants of ethidium bromide and thiazole orange to polynucleotides (FIG. 10, first table)
Description: FIG. 10 is a table showing the binding constants of ethidium bromide and thiazole orange. […] The variation in the DNA used in the first table is much greater than that used in the second table which explains the greater variation in the ethidium bromide constants.

[4] = tested on: hairpin deoxyoligonucleotide; experiment: Direct fluorescence titration of DAPI, Hoechst 33258, ethidium bromide or thiazole orange; assay type: binding; conditions: FIG. 10, second table
Protocol: Direct Fluorescence Titration of DAPI, Hoechst 33258, Ethidium Bromide or Thiazole Orange. A 3 mL quartz cuvette was loaded with Tris buffer (0.1 M Tris, 0.1 M, NaCl, pH 8) and hairpin deoxyoligonucleotide (1.1 μM, 8.8 μM in bp final concentration). A solution of DAPI (excitation 372 nm; emission 454 nm; 2 μL, 0.1 mM in DMSO), Hoechst 33258 (excitation 358 nm; emission 454 nm; 2 μL, 0.1 mM in DMSO), ethidium bromide (excitation 545 nm; emission 595 nm; 2 μL, 0.5 mM in H2O) or thiazole orange (excitation 509 nm; emission 527 nm; 2 μL, 0.5 mM in DMSO) was added and the fluorescence was measured following 5 min of incubation at 23° C. The addition of 2 μL aliquots was continued until the system reached saturation and the fluorescence remained constant with subsequent additions.
as §1

Row | Structure (SMILES) | binding constant for the hairpin containing AAAAA ([1]; hairpin containing 5′-AAAAA) [M⁻¹] | 3 or 2 bp AT sites, statistical site frequency in the top 50 sequences ([2]; 512 hairpins) [%] | five bp AT sites found in the top 50 sequences ([2]; 512 hairpins) [%] | four bp AT sites found in the top 50 sequences ([2]; 512 hairpins) [%] | three bp AT sites found in the top 50 sequences ([2]; 512 hairpins) [%] | sites containing a GC bp central to a five bp AT-rich site in the top 50 sequences ([2]; 512 hairpins) | also measured
1 | CN1CCN(c2ccc3[nH]c(-c4ccc5[nH]c(-c6ccc(O)cc6)nc5c4)nc3c2)CC1 [Hoechst 33258] | 7.2e+07 | 19 | 100 | 59 | – | no site containing a GC bp central to a 5 bp AT-rich site is found in the top 50 sequences | binding constants by ethidium bromide displacement relative to direct titration ([1]; fold weaker than direct titration, four hairpins): ~2 fold; GAAT among the top 50 sequences ([2]; 5 sequences): 10%; GATT among the top 50 sequences ([2]; 7 sequences): 14%; top 50 sequences that contain a three bp AT site flanked by a GC bp ([2]; 15 in the top 50): 30%; sequences 21-50 (next 30 after the top 20) that contain a three bp AT site flanked by a GC bp ([2]; 15 of the next 30 sequences): 50%; fluorescent decrease ([2]; hairpins >100-150): < 20%
2 | Cn1cc(NC(=O)c2cc(NC(=O)c3cc(NC=O)cn3C)cn2C)cc1C(=O)NCCC(=N)N [distamycin A] | 1.7e+07 | 27 | 88 | 47 | 13 | – | hairpin sites with a GC bp central to a five bp AT-rich site found in the top 50 sequences ([2]; share of the 16 such hairpin sites): 44%; two bp AT sites found in the top 50 sequences ([2]; share of the 176 two bp AT sites, 512 hairpins): 6%; top 50 sequences that contain a GC bp central to a five bp AT-rich site ([2]; share of the top 50 sequences): 14%
3 | Cn1cc(NC(=O)c2cc(NC(=O)CN=C(N)N)cn2C)cc1C(=O)NCCC(=N)N [netropsin] | 3.47e+08 | 9 | 100 | 84 | 9 | no AT-rich sequence interrupted by a central GC bp appears in the top 50 sequences | ethidium bromide displaced at saturation binding ([1]; hairpin containing 5′-AAAAA): essentially all the ethidium bromide; mean position of the 2 bp AT sites [3]: 67.7; mean position of the 3 bp AT sites [3]: 41.6; mean rank of the ten available 4 bp AT sites [3]: 7.3; rank (sequence no.) of ATTTA ([2]; 1.0 μM netropsin): 3; rank (sequence no.) of ATTTA ([2]; 2.0 μM netropsin): 1
4 | CN1C(=Cc2cc[n+](C)c3ccccc23)Sc2ccccc21 [thiazole orange] | – | – | – | – | – | – | difference in binding constant between polynucleotides (polynucleotides): no difference; difference in binding constants between hairpins [4]: 1.3 fold

Further lines, with some results ahead:

Row | binding constant for the hairpin containing AAAAA ([1]; hairpin containing 5′-AAAAA) [M⁻¹] | 3 or 2 bp AT sites, statistical site frequency in the top 50 sequences ([2]; 512 hairpins) [%] | five bp AT sites found in the top 50 sequences ([2]; 512 hairpins) [%] | four bp AT sites found in the top 50 sequences ([2]; 512 hairpins) [%] | three bp AT sites found in the top 50 sequences ([2]; 512 hairpins) [%] | Structure (SMILES) | sites containing a GC bp central to a five bp AT-rich site in the top 50 sequences ([2]; 512 hairpins) | also measured
5 | 5e+07 | 14 | 100 | 72 | 14 | Cl.Cl.N=C(N)c1ccc(-c2cc3ccc(C(=N)N)cc3[nH]2)cc1 [DAPI, 4′,6-Diamidine-2-phenylindole.2HCl] | none | % fluorescence decrease ([2]; non AT-rich hairpins (>150-512), 2 μM): < 20%; binding to GC-rich regions by intercalation relative to AT-rich minor groove binding (GC-rich regions): 100-1000 fold
6 | 6.4e+06 | 15 | 100 | 66 | 15 | CC(=O)NCC(=O)O.CC(=O)NCC(=O)O.N=C(N)c1ccc(N=NNc2ccc(C(=N)N)cc2)cc1 [berenil] | – | –
